Assay results taken from ChEMBL document CHEMBL3621042, “Design, synthesis of novel tryptophan derivatives for antiplatelet aggregation activity based on tripeptide pENW (pGlu-Asn-Trp)” (Eur J Med Chem, 2015).
Activity calls are given as the source filed them. The rule behind the calls is not given here. Square brackets hold non-standard residues; d marks the D form. Peptide text beside a SMILES is read from it. pGlu = O=C1CC[C@@H](C(=O)O)N1

Legend:
[1] = biological target: T1, Integrin alpha-IIb/beta-3 (Oryctolagus cuniculus) (UniProt Q9TUN4+Q9TUN3); assay: Antagonist activity at GP2b/3a receptor in New Zealand rabbit platelet-rich plasma assessed as inhibition of ADP-induced platelet aggregation at 100 uM preincubated for 1 min followed by addition of ADP by aggregometer
[2] = biological target: T1, Integrin alpha-IIb/beta-3 (Oryctolagus cuniculus); assay: Antagonist activity at GP2b/3a receptor in New Zealand rabbit platelet-rich plasma assessed as inhibition of ADP-induced platelet aggregation at 500 uM preincubated for 1 min followed by addition of ADP by aggregometer
[3] = test system: Rattus norvegicus; assay: Antithrombotic activity in Sprague-Dawley rat arteriovenous shunt thrombosis model assessed as wet/dry weight reduction of thrombus at 1 mg/kg, iv incubated for 30 mins prior to testing; format: functional; parameters: scale not given: the % may be the effect or the level left
[4] = test system: Mus musculus; assay: Toxicity in ICR mouse assessed as bleeding time at 0.3 mg/kg incubated for 30 mins prior to testing by tail transection method; format: organism-based; settings: in vivo, 0.5 h
[5] = test system: Rattus norvegicus; assay: Antithrombotic activity in iv dosed Sprague-Dawley rat arteriovenous shunt thrombosis model assessed as wet/dry weight reduction of thrombus incubated for 30 mins prior to testing; format: functional, organism-based
[6] = test system: Mus musculus; assay: Toxicity in ICR mouse assessed as bleeding time at 1 mg/kg incubated for 30 mins prior to testing by tail transection method; format: organism-based; settings: in vivo, 0.5 h
[7] = test system: Rattus norvegicus; assay: Antithrombotic activity in Sprague-Dawley rat arteriovenous shunt thrombosis model assessed as wet/dry weight reduction of thrombus at 3 mg/kg, iv incubated for 30 mins prior to testing; format: functional; parameters: scale not given: the % may be the effect or the level left
[8] = test system: Mus musculus; assay: Toxicity in ICR mouse assessed as bleeding time at 3 mg/kg incubated for 30 mins prior to testing by tail transection method; format: organism-based; settings: in vivo, 0.5 h
[9] = biological target: T1, Integrin alpha-IIb/beta-3 (Oryctolagus cuniculus); settings: New Zealand, Plasma, 1 to 1000 uM
Description: Antagonist activity at GP2b/3a receptor in New Zealand rabbit platelet-rich plasma assessed as inhibition of ADP-induced platelet aggregation at 1 to 1000 uM preincubated for 1 min followed by addition of ADP by aggregometer

[10] = biological target: Integrin alpha-IIb/beta-3 (Homo sapiens, UniProt P05106+P08514); assay: Antagonist activity at GP2b/3a receptor (unknown origin) assessed as inhibition of interaction with fibrinogen after 2 hrs by ELISA; format: protein-complex assay
Integrin alpha-IIb/beta-3, sequence (P05106 27-788 limits assumed): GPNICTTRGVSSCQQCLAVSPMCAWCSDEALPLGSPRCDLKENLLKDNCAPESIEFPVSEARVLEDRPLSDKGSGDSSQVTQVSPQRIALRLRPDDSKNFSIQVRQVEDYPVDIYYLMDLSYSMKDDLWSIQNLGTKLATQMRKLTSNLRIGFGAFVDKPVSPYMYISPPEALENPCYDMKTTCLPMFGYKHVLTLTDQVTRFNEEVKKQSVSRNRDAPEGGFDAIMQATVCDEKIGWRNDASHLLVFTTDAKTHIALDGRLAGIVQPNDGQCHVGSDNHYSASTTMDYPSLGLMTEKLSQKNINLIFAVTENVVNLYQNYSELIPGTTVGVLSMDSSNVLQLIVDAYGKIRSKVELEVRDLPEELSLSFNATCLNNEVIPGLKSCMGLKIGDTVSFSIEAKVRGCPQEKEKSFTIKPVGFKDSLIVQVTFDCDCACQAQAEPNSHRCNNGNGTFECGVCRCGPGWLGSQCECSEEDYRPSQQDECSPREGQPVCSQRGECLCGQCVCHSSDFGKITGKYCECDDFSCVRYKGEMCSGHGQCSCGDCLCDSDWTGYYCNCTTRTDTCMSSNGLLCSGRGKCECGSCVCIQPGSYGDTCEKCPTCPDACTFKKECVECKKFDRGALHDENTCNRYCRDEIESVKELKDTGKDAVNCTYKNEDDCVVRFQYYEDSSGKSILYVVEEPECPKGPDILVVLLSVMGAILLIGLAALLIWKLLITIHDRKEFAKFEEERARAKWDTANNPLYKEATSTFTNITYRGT
Integrin alpha-IIb/beta-3, sequence (P08514 32-887 limits assumed): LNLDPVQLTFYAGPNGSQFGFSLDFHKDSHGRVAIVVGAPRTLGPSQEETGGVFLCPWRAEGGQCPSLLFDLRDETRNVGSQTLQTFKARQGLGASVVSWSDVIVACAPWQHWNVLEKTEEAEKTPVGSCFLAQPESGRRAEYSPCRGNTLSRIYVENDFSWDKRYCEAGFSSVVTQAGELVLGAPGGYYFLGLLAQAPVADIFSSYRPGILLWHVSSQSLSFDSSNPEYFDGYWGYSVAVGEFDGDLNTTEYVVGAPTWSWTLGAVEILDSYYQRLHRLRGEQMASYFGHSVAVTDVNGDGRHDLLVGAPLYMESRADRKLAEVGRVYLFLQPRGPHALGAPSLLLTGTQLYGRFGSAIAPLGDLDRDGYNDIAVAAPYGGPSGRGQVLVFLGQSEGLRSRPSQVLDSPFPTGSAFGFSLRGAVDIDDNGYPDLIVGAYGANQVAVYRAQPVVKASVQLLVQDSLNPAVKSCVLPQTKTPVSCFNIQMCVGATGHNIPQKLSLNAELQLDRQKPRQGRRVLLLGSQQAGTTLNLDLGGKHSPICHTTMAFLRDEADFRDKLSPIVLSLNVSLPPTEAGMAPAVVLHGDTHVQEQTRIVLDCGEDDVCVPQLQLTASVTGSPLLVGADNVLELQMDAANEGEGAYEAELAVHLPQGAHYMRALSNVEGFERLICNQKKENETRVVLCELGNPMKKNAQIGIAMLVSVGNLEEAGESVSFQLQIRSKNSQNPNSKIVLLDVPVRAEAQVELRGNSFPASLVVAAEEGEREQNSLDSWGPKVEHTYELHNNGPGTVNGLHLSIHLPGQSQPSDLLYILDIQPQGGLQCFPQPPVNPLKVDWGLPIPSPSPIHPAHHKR
Integrin alpha-IIb/beta-3, sequence (P08514 891-1039 limits assumed): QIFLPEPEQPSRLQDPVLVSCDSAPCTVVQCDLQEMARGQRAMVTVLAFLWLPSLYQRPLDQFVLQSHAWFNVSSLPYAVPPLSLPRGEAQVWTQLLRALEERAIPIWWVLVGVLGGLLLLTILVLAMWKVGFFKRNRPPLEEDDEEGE

SMILES | inhibition [1] | inhibition [2] | other results
O=C(O)[C@H](Cc1c[nH]c2ccc(OCCCCC3CCNCC3)cc12)NS(=O)(=O)c1ccc(F)cc1 | 57.1% |  | 
O=C(N[C@@H](Cc1c[nH]c2ccc(OCCCCC3CCNCC3)cc12)C(=O)O)c1ccc([N+](=O)[O-])cc1 | 43.5% |  | 
CCCC(=O)N[C@@H](Cc1c[nH]c2ccc(OCCCCN3CCNCC3)cc12)C(=O)O |  | 79.1% | 
CCCC(=O)N[C@@H](Cc1c[nH]c2ccc(OCCCC3CCNCC3)cc12)C(=O)O |  | 71.2% | 
CCCC(=O)N[C@@H](Cc1c[nH]c2ccc(OCCCCC3CCNCC3)cc12)C(=O)O |  | 53.3% | 
O=C(N[C@@H](Cc1c[nH]c2ccc(OCCCN3CCNCC3)cc12)C(=O)O)c1ccccc1 |  | 82.4% | 
COc1ccc(C(=O)N[C@@H](Cc2c[nH]c3ccc(OCCCCC4CCNCC4)cc23)C(=O)O)cc1 | 38.3% |  | 
O=C(N[C@@H](Cc1c[nH]c2ccc(OCCCCC3CCNCC3)cc12)C(=O)O)c1ccc(F)cc1 | 54.9% |  | 
CCCC(=O)N[C@@H](Cc1c[nH]c2ccc(OCCN3CCNCC3)cc12)C(=O)O |  | 58.3% | 
CCCCS(=O)(=O)N[C@@H](Cc1ccc(OCCCCC2CCNCC2)cc1)C(=O)O [TIROFIBAN] |  |  | Activity [3]: Active; inhibition [9]: Active; Time [6]: 17 min
O=C(O)[C@H](Cc1c[nH]c2ccc(OCCCCC3CCNCC3)cc12)NS(=O)(=O)c1ccc([N+](=O)[O-])cc1 | 45.3% |  | 
O=C(O)[C@H](Cc1c[nH]c2ccc(OCCCC3CCNCC3)cc12)NS(=O)(=O)c1ccccc1 |  | 94.5% | 
CCCC(=O)N[C@@H](Cc1c[nH]c2ccc(OCCCN3CCNCC3)cc12)C(=O)O |  | 84.3% | 
NC(=O)C[C@H](NC(=O)[C@@H]1CCC(=O)N1)C(=O)N[C@@H](Cc1c[nH]c2ccccc12)C(=O)O ([pGlu]-Asn-Trp-OH) | 21.4% | 38.7% | Activity [3]: inactive; IC50 [10]: 12.5 µM; Activity [6]: Non-toxic
COc1ccc(S(=O)(=O)N[C@@H](Cc2c[nH]c3ccc(OCCCCC4CCNCC4)cc23)C(=O)O)cc1 | 39.3% |  | 
O=C(O)[C@H](Cc1c[nH]c2ccc(OCCCCC3CCNCC3)cc12)NS(=O)(=O)c1ccccc1 | 53.8% | 99.2% | 
O=C(N[C@@H](Cc1c[nH]c2ccc(OCCCC3CCNCC3)cc12)C(=O)O)c1ccccc1 |  | 92.7% | 

More lines, main results first:

inhibition [1] | inhibition [2] | SMILES | other results
62.7% |  | O=C(N[C@@H](Cc1c[nH]c2ccc(OCCCCC3CCNCC3)cc12)C(=O)O)c1cc(Cl)cc(Cl)c1 | 
 | 52.4% | CCCCS(=O)(=O)N[C@@H](Cc1c[nH]c2ccc(OCCCCC3CCNCC3)cc12)C(=O)O | 
81.2% |  | O=C(O)[C@H](Cc1c[nH]c2ccc(OCCCCC3CCNCC3)cc12)NS(=O)(=O)c1ccc(Br)cc1 | Activity [3]: 26.6%; Time [4]: 10.6 min; Activity [5]: Dose-dependent effect; Time [6]: 11.8 min; Activity [7]: 41.7%; Time [8]: 13.5 min
 | 83.3% | O=C(N[C@@H](Cc1c[nH]c2ccc(OCCCCN3CCNCC3)cc12)C(=O)O)c1ccccc1 | 
53.4% |  | O=C(N[C@@H](Cc1c[nH]c2ccc(OCCCCC3CCNCC3)cc12)C(=O)O)c1cccc(F)c1 | 
 | 88.9% | CCCCS(=O)(=O)N[C@@H](Cc1c[nH]c2ccc(OCCCN3CCNCC3)cc12)C(=O)O | 
 | 35.2% | CC(=O)N[C@@H](CC(N)=O)C(=O)N[C@@H](Cc1c[nH]c2ccccc12)C(=O)O (Ac-Asn-Trp-OH) | 
 | 13.5% | CCCC(=O)N[C@@H](Cc1c[nH]c2ccc(OCCCN3CCN(C)CC3)cc12)C(=O)O | 
 | 12.4% | CCCC(=O)N[C@@H](Cc1c[nH]c2ccc(OCCN3CCN(C)CC3)cc12)C(=O)O | 
27.9% | 96.2% | O=C(N[C@@H](Cc1c[nH]c2ccc(OCCCCC3CCNCC3)cc12)C(=O)O)c1ccccc1 | 
43.1% |  | Cc1ccc(S(=O)(=O)N[C@@H](Cc2c[nH]c3ccc(OCCCCC4CCNCC4)cc23)C(=O)O)cc1 | 
 | 61.2% | CCCCS(=O)(=O)N[C@@H](Cc1c[nH]c2ccc(OCCCCN3CCNCC3)cc12)C(=O)O | 
 | 29.5% | CCCC(=O)N[C@@H](Cc1c[nH]c2ccc(OCCC3CCNCC3)cc12)C(=O)O | 
 | 51.4% | CC(=O)N[C@@H](CC(N)=O)C(=O)N[C@@H](Cc1c[nH]c2ccc(OCCCC3CCNCC3)cc12)C(=O)O | 
 | 73.3% | CCCCS(=O)(=O)N[C@@H](Cc1c[nH]c2ccc(OCCCC3CCNCC3)cc12)C(=O)O | 
 | 55.3% | O=C(O)[C@H](Cc1c[nH]c2ccc(OCCCN3CCNCC3)cc12)NS(=O)(=O)c1ccccc1 | 
 | 57.5% | O=C(O)[C@H](Cc1c[nH]c2ccc(OCCCCN3CCNCC3)cc12)NS(=O)(=O)c1ccccc1 | 
